Source: patent US8598226B2, “Fused cyclic compounds” (Takeda Pharmaceutical Company Limited, priority 2006, dated 2013)
Counter-ions that a name gives are not always drawn.

target: T1, human-derived GPR40 (Homo sapiens, UniProt O14842); assay: Receptor function modulating action (agonist action) on human-derived GPR40: variation in intracellular calcium concentration in CHO cells (FLIPR or Cell Lux); assay type: cell-based; conditions: each compound at 1 μM; relative to activity of 10 μM γ-linolenic acid = 100%; CHO cell line stably expressing human-derived GPR40; FLIPR for Examples 2, 6, 8, 10, 11, 13, Cell Lux for Examples 19-34
T1 construct: expressed in transfected cells
T1 sequence (O14842 whole entry): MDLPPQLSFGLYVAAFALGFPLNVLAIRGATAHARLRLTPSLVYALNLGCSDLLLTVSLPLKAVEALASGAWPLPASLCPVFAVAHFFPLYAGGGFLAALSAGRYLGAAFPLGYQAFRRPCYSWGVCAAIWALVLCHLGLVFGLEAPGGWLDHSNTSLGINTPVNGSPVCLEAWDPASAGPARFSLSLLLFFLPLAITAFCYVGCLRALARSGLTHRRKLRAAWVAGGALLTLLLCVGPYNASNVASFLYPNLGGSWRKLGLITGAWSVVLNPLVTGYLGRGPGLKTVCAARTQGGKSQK
Description: A CHO cell line stably expressing human-derived GPR40 was used for determining the agonist activity. […] One day before the assay, the cells cultured to near confluence were rinsed with PBS (Invitrogen), detached using 0.5 mM EDTA (Wako Pure Chemical Industries, Ltd.) and recovered by centrifugation. The obtained cells were counted and diluted to 3×10^5 cells per 1 mL medium. The cells were dispensed to a 96-well black clear bottom plate (Coster) by 100 μL per well and cultured overnight in a CO2 incubator. To the CHO cells prepared in this manner were added various test compounds, and variation in the intracellular calcium concentration was measured using FLIPR (Molecular Device) or Cell Lux (PerkinElmer). For measurement of variation in the intracellular calcium concentration using FLIPR or Cell Lux, the following pretreatment was performed. […] Then, a fluorescence dye solution was dispensed by 100 μL per well, and the cells were cultured in a CO2 incubator for 1 hr to allow intake of the fluorescence dye. During this time, the test compound was diluted to a given concentration with the assay buffer, and dispensed to a polypropylene 96-well plate (sample plate) by 100 μL. The cell plate and the sample plate were simultaneously set in the FLIPR or Cell Lux. After the foregoing pretreatment, variation in the intracellular calcium concentration after addition of 50 μL of various test compounds was measured using FLIPR or Cell Lux.

Structure (SMILES)	activation at 1 µM [%]	Relative activity value [%]
Cc1cc(OC2CCS(=O)(=O)CC2)cc(C)c1-c1cccc(COc2ccc3c(c2)OC[C@H]3CC(=O)O)c1 [Example 2, [(3S)-6-({4′-[(1,1-dioxidotetrahydro-2H-thiopyran-4-yl)oxy]-2′,6′-dimethylbiphenyl-3-yl}methoxy)-2,3-dihydro-1-benzofuran-3-yl]acetic acid]	107	
Cc1cc(OCC2(O)CCS(=O)(=O)CC2)cc(C)c1-c1cccc(COc2ccc3c(c2)OC[C@H]3CC(=O)O)c1 [Example 6, [(3S)-6-({4′-[(4-hydroxy-1,1-dioxidotetrahydro-2H-thiopyran-4-yl)methoxy]-2′,6′-dimethylbiphenyl-3-yl}methoxy)-2,3-dihydro-1-benzofuran-3-yl]acetic acid]	102	
Cc1c(C)c(-c2cccc(COc3ccc4c(c3)OC[C@H]4CC(=O)O)c2)c(C)c(C)c1OCCCS(C)(=O)=O [Example 8, [(3S)-6-({2′,3′,5′,6′-tetrameramethyl-4′-[3-(methylsulfonyl)propoxy]biphenyl-3-yl}methoxy)-2,3-dihydro-1-benzofuran-3-yl]acetic acid]	112	
Cc1cc(OCCCS(C)(=O)=O)cc(C)c1-c1cccc(COc2ccc3c(c2)OC[C@H]3CC(=O)O)c1 [Example 10, [(3S)-6-({2′,6′-dimethyl-4′-[3-(methylsulfonyl)propoxy]biphenyl-3-yl}methoxy)-2,3-dihydro-1-benzofuran-3-yl]acetic acid]		114
CCS(=O)(=O)CCOc1cc(C)c(-c2cccc(COc3ccc4c(c3)OC[C@H]4CC(=O)O)c2)c(C)c1 [Example 11, [(3S)-6-({4′-[2-(ethylsulfonyl)ethoxy]-2′,6′-dimethylbiphenyl-3-yl}methoxy)-2,3-dihydro-1-benzofuran-3-yl]acetic acid]	120	
Cc1cc(OCCCS(C)(=O)=O)c(F)c(C)c1-c1cccc(COc2ccc3c(c2)OC[C@H]3CC(=O)O)c1 [Example 13, [(3S)-6-({3′-fluoro-2′,6′-dimethyl-4′-[3-(methylsulfonyl)propoxy]biphenyl-3-yl}methoxy)-2,3-dihydro-1-benzofuran-3-yl]acetic acid]	125	
Cc1cc(OCCCS(C)(=O)=O)cc(CO)c1-c1cccc(COc2ccc3c(c2)OC[C@H]3CC(=O)O)c1 [Example 19, [(3S)-6-({2′-(hydroxymethyl)-6′-methyl-4′-[3-(methylsulfonyl)propoxy]biphenyl-3-yl}methoxy)-2,3-dihydro-1-benzofuran-3-yl]acetic acid]	118	
Cc1cc(OCCCS(C)(=O)=O)c(Cl)c(C)c1-c1cccc(COc2ccc3c(c2)OC[C@H]3CC(=O)O)c1 [Example 22, [(3S)-6-({3′-chloro-2′,6′-dimethyl-4′-[3-(methylsulfonyl)propoxy]biphenyl-3-yl}methoxy)-2,3-dihydro-1-benzofuran-3-yl]acetic acid]	121	
Cc1c(Cl)c(OCCCS(C)(=O)=O)c(Cl)c(C)c1-c1cccc(COc2ccc3c(c2)OC[C@H]3CC(=O)O)c1 [Example 24, [(3S)-6-({3′,5′-dichloro-2′,6′-dimethyl-4′-[3-(methylsulfonyl)propoxy]biphenyl-3-yl}methoxy)-2,3-dihydro-1-benzofuran-3-yl]acetic acid]	96	
CCc1cc(OCCCS(C)(=O)=O)cc(CC)c1-c1cccc(COc2ccc3c(c2)OC[C@H]3CC(=O)O)c1 [Example 26, [(3S)-6-({2′,6′-diethyl-4′-[3-(methylsulfonyl)propoxy]biphenyl-3-yl}methoxy)-2,3-dihydro-1-benzofuran-3-yl]acetic acid]	101	
CCc1c(Cl)c(OCCCS(C)(=O)=O)c(Cl)c(CC)c1-c1cccc(COc2ccc3c(c2)OC[C@H]3CC(=O)O)c1 [Example 28, [(3S)-6-({3′,5′-dichloro-2′,6′-diethyl-4′-[3-(methylsulfonyl)propoxy]biphenyl-3-yl}methoxy)-2,3-dihydro-1-benzofuran-3-yl]acetic acid]	92	
Cc1cc(OCCCS(C)(=O)=O)cc(C)c1-c1cc(COc2ccc3c(c2)OC[C@H]3CC(=O)O)ccc1Oc1ccccc1 [Example 30, [(3S)-6-({2′,6′-dimethyl-4′-[3-(methylsulfonyl)propoxy]-6-phenoxybiphenyl-3-yl}methoxy)-2,3-dihydro-1-benzofuran-3-yl]acetic acid 0.5 calcium salt]	108	
Cc1cc(OCCCS(C)(=O)=O)cc(C)c1-c1cc(COc2ccc3c(c2)OC[C@H]3CC(=O)O)ccc1COc1ccccc1 [Example 32, [(3S)-6-({2′,6′-dimethyl-4′-[3-(methylsulfonyl)propoxy]-6-(phenoxymethyl)biphenyl-3-yl}methoxy)-2,3-dihydro-1-benzofuran-3-yl]acetic acid]	104	
Cc1cc(OCCCS(C)(=O)=O)cc(C)c1-c1cc(COc2ccc3c(c2)OC[C@H]3CC(=O)O)c(F)cc1OCc1ccccc1 [Example 34, [(3S)-6-({6-(benzyloxy)-4-fluoro-2′,6′-dimethyl-4′-[3-(methylsulfonyl)propoxy]biphenyl-3-yl}methoxy)-2,3-dihydro-1-benzofuran-3-yl]acetic acid]	119	

same assay, conditions: each compound at 1 μM; relative to activity of 10 μM γ-linolenic acid = 100%; CHO cell line stably expressing human-derived GPR40; FLIPR for Examples 2, 6, 8, 10, 11, 13, Cell Lux for Examples 19-34; hydrate

Structure (SMILES)	Relative activity value [%]
Cc1cc(OCCCS(C)(=O)=O)cc(C)c1-c1cccc(COc2ccc3c(c2)OC[C@H]3CC(=O)O)c1 [Example 20, [(3S)-6-({2′,6′-dimethyl-4′-[3-(methylsulfonyl)propoxy]biphenyl-3-yl}methoxy)-2,3-dihydro-1-benzofuran-3-yl]acetic acid 0.5 hydrate]	118

same assay, conditions: reference agonist at 10 μM, its activity set as 100%; CHO cell line stably expressing human-derived GPR40

Structure (SMILES)	Relative activity value [%]
CCCCC/C=C\C/C=C\C/C=C\CCCCC(=O)O [γ-linoleic acid, γ-linolenic acid, reference compound]	100
